What was measured:
Experiment in all cases: relative viability (nuclei count vs DMSO), 5 days (fraction); higher = more cells survive
ABC-1 = tested on: ABC-1
Procedure, shortened: (§1)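 Relative viability equals treated-well nuclei counts divided by vehicle-well nuclei counts. Counts came from 4× images of lung cancer cell lines grown in 1536-well plates for 5 days after pin-tool dosing on the day after seeding. Dosing used one drug alone or a fixed anchor-drug dose plus five library-drug doses (not always all listed) in √10 steps, and values are medians of duplicate plates.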

CAL-12T = tested on: CAL-12T
Procedure, shortened: as §1

ChaGo-K-1 = tested on: ChaGo-K-1
Procedure, shortened: as §1

HCC-366 = tested on: HCC-366
Procedure, shortened: as §1

HCC-78 = tested on: HCC-78
Procedure, shortened: as §1

LC-2-ad = tested on: LC-2-ad
Procedure, shortened: as §1

LOU-NH91 = tested on: LOU-NH91
Procedure, shortened: as §1

LU99A = tested on: LU99A
Procedure, shortened: as §1

NCI-H1395 = tested on: NCI-H1395
Procedure, shortened: as §1

NCI-H1651 = tested on: NCI-H1651
Procedure, shortened: as §1

NCI-H1755 = tested on: NCI-H1755
Procedure, shortened: as §1

NCI-H1793 = tested on: NCI-H1793
Procedure, shortened: as §1

NCI-H1944 = tested on: NCI-H1944
Procedure, shortened: as §1

NCI-H2087 = tested on: NCI-H2087
Procedure, shortened: as §1

NCI-H2170 = tested on: NCI-H2170
Procedure, shortened: as §1

NCI-H2405 = tested on: NCI-H2405
Procedure, shortened: as §1

NCI-H3122 = tested on: NCI-H3122
Procedure, shortened: as §1

NCI-H460 = tested on: NCI-H460
Procedure, shortened: as §1

PC-3 [JPC-3] = tested on: PC-3 [JPC-3]
Procedure, shortened: as §1

RERF-LC-KJ = tested on: RERF-LC-KJ
Procedure, shortened: as §1

In the case of `CCN(CC)CCCCNc1ncc2cc(-c3cc(OC)cc(OC)c3)c(NC(=O)NC(C)(C)C)nc2n1` + NC(=O)Nc1cc(-c2cccc(F)c2)sc1C(=O)N[C@H]1CCCNC1 [AZD7762] (partner 0.2 µM), the relative viability (ABC-1; first compound 0.01 µM) is reported as 0.766, the relative viability (ABC-1; first compound 0.1 µM) is reported as 1.1 and the relative viability (ABC-1; first compound 0.3162 µM) is reported as 0.795. For the same compound, the relative viability (ABC-1; first compound 1 µM) was 0.825, the relative viability (CAL-12T; first compound 0.01 µM) was 0.594 and the relative viability (CAL-12T; first compound 0.03162 µM) was 0.564. For the same compound, the relative viability (CAL-12T; first compound 0.1 µM) was 0.796, the relative viability (CAL-12T; first compound 0.3162 µM) was 0.758 and the relative viability (CAL-12T; first compound 1 µM) was 0.641. The relative viability (ChaGo-K-1; first compound 0.01 µM) was 0.885, the relative viability (ChaGo-K-1; first compound 0.03162 µM) was 0.927 and the relative viability (ChaGo-K-1; first compound 0.1 µM) was 0.956. For the same compound, the relative viability (ChaGo-K-1; first compound 0.3162 µM) was 0.878, the relative viability (ChaGo-K-1; first compound 1 µM) was 0.853 and the relative viability (HCC-366; first compound 0.01 µM) was 0.256. It also gave a relative viability (HCC-366; first compound 0.03162 µM) of 0.462, a relative viability (HCC-366; first compound 0.1 µM) of 0.277 and a relative viability (HCC-366; first compound 0.3162 µM) of 0.289. It also gave a relative viability (HCC-366; first compound 1 µM) of 0.247, a relative viability (HCC-78; first compound 0.01 µM) of 0.394 and a relative viability (HCC-78; first compound 0.03162 µM) of 0.647. The relative viability (HCC-78; first compound 0.1 µM) was 0.726, the relative viability (HCC-78; first compound 0.3162 µM) was 0.745 and the relative viability (HCC-78; first compound 1 µM) was 0.549. The relative viability (LC-2-ad; first compound 0.01 µM) was 0.878, the relative viability (LC-2-ad; first compound 0.03162 µM) was 0.798 and the relative viability (LC-2-ad; first compound 0.1 µM) was 0.92. For the same compound, the relative viability (LC-2-ad; first compound 0.3162 µM) was 0.932, the relative viability (LC-2-ad; first compound 1 µM) was 0.815 and the relative viability (LOU-NH91; first compound 0.01 µM) was 0.783. The relative viability (LOU-NH91; first compound 0.03162 µM) was 0.768, the relative viability (LOU-NH91; first compound 0.1 µM) was 0.828 and the relative viability (LOU-NH91; first compound 0.3162 µM) was 0.845. For the same compound, the relative viability (LOU-NH91; first compound 1 µM) was 0.794, the relative viability (LU99A; first compound 0.01 µM) was 0.325 and the relative viability (LU99A; first compound 0.03162 µM) was 0.486. It also gave a relative viability (LU99A; first compound 0.1 µM) of 0.323, a relative viability (LU99A; first compound 0.3162 µM) of 0.35 and a relative viability (LU99A; first compound 1 µM) of 0.289. For the same compound, the relative viability (NCI-H1395; first compound 0.01 µM) was 0.402, the relative viability (NCI-H1395; first compound 0.03162 µM) was 0.338 and the relative viability (NCI-H1395; first compound 0.1 µM) was 0.422. It also gave a relative viability (NCI-H1395; first compound 0.3162 µM) of 0.392, a relative viability (NCI-H1395; first compound 1 µM) of 0.309 and a relative viability (NCI-H1651; first compound 0.01 µM) of 0.444. It also gave a relative viability (NCI-H1651; first compound 0.03162 µM) of 0.508, a relative viability (NCI-H1651; first compound 0.1 µM) of 0.497 and a relative viability (NCI-H1651; first compound 0.3162 µM) of 0.608. The relative viability (NCI-H1651; first compound 1 µM) was 0.397, the relative viability (NCI-H1755; first compound 0.01 µM) was 0.429 and the relative viability (NCI-H1755; first compound 0.03162 µM) was 0.546. It also gave a relative viability (NCI-H1755; first compound 0.1 µM) of 0.525, a relative viability (NCI-H1755; first compound 0.3162 µM) of 0.421 and a relative viability (NCI-H1755; first compound 1 µM) of 0.365. The relative viability (NCI-H1793; first compound 0.01 µM) was 0.541, the relative viability (NCI-H1793; first compound 0.03162 µM) was 0.581 and the relative viability (NCI-H1793; first compound 0.1 µM) was 0.601. The relative viability (NCI-H1793; first compound 0.3162 µM) was 0.326, the relative viability (NCI-H1793; first compound 1 µM) was 0.319 and the relative viability (NCI-H1944; first compound 0.01 µM) was 0.474. For the same compound, the relative viability (NCI-H1944; first compound 0.03162 µM) was 0.86, the relative viability (NCI-H1944; first compound 0.1 µM) was 0.513 and the relative viability (NCI-H1944; first compound 0.3162 µM) was 0.505. It also gave a relative viability (NCI-H1944; first compound 1 µM) of 0.494, a relative viability (NCI-H2087; first compound 0.01 µM) of 1.21 and a relative viability (NCI-H2087; first compound 0.03162 µM) of 1.31. The relative viability (NCI-H2087; first compound 0.1 µM) was 1.34, the relative viability (NCI-H2087; first compound 0.3162 µM) was 1.29 and the relative viability (NCI-H2087; first compound 1 µM) was 1.18. For the same compound, the relative viability (NCI-H2170; first compound 0.01 µM) was 0.865, the relative viability (NCI-H2170; first compound 0.03162 µM) was 1.01 and the relative viability (NCI-H2170; first compound 0.1 µM) was 1. It also gave a relative viability (NCI-H2170; first compound 0.3162 µM) of 0.953, a relative viability (NCI-H2170; first compound 1 µM) of 0.869 and a relative viability (NCI-H2405; first compound 0.01 µM) of 0.792. The relative viability (NCI-H2405; first compound 0.03162 µM) was 0.734, the relative viability (NCI-H2405; first compound 0.1 µM) was 0.812 and the relative viability (NCI-H2405; first compound 0.3162 µM) was 0.803. It also gave a relative viability (NCI-H2405; first compound 1 µM) of 0.628, a relative viability (NCI-H3122; first compound 0.01 µM) of 1 and a relative viability (NCI-H3122; first compound 0.03162 µM) of 0.987. For the same compound, the relative viability (NCI-H3122; first compound 0.1 µM) was 1.08, the relative viability (NCI-H3122; first compound 0.3162 µM) was 0.971 and the relative viability (NCI-H3122; first compound 1 µM) was 1.06. For the same compound, the relative viability (NCI-H460; first compound 0.01 µM) was 0.607, the relative viability (NCI-H460; first compound 0.03162 µM) was 0.739 and the relative viability (NCI-H460; first compound 0.1 µM) was 0.716. It also gave a relative viability (NCI-H460; first compound 0.3162 µM) of 0.821, a relative viability (NCI-H460; first compound 1 µM) of 0.4 and a relative viability (PC-3 [JPC-3]; first compound 0.03162 µM) of 0.822. The relative viability (PC-3 [JPC-3]; first compound 0.1 µM) was 0.756, the relative viability (PC-3 [JPC-3]; first compound 0.3162 µM) was 1.03 and the relative viability (PC-3 [JPC-3]; first compound 1 µM) was 0.639. The relative viability (RERF-LC-KJ; first compound 0.01 µM) was 0.919, the relative viability (RERF-LC-KJ; first compound 0.03162 µM) was 1.04 and the relative viability (RERF-LC-KJ; first compound 0.1 µM) was 0.983. It also gave a relative viability (RERF-LC-KJ; first compound 0.3162 µM) of 1.28 and a relative viability (RERF-LC-KJ; first compound 1 µM) of 1.1.

— the supplement of paper PMC10307832
